# Measurements from article PMC6923474 (Scientific Reports, 2019).
# Entries after “also recorded” stand apart in the source; their conditions may differ. Read-outs that look alike come from different tables or passages of the source.
# How the values were obtained:
# NMDARs = conditions: cited from earlier work
# [1] = cited from earlier work
# NMDA receptors (NMDARs) = assay: Whole-cell patch-clamp of NMDA-activated currents in primary cultures of cortical neurons; type: cell-based, rat
# Experimental: All manipulations on animals were performed in accordance with the guide of the Federation for Laboratory Animal Science Associations and were approved by the Animal Care and Use Committees of Sechenov Institute. Briefly, 16 days pregnant Wistar rats (14 female rats used in this study, supplied by the Sechenov Institute Animal Facility) were placed in a plastic box connected to a CO2 tank by a tube and then sacrificed by 1 min CO2 inhalation. Fetuses were removed and then primary cultures of rat cortical neurons were prepared using conventional procedures as described earlier[27],[66]. Neurons were grown in Neurobasal culture medium supplemented with B-27 (Gibco-Invitrogen, UK) on glass coverslips coated with poly-D-lysine and were used for experiments after 10–15 days in culture[66],[67].
# Whole-cell currents were recorded from cultured rat cortical neurons using a MultiClamp 700B patch-clamp amplifier with Digidata 1440 A controlled by pClamp v10.2 software (Molecular Devices). Recordings were 8-order low-pass filtered at 200 Hz and the acquisition rate was 20000 samples per second. Solution exchange was performed by means of a fast solution application system as described earlier. Unless otherwise specified, the external bathing solution contained (in mM): 140 NaCl; 2.8 KCl; 1.0 CaCl2; 10 HEPES, at pH 7.2–7.4, osmolarity 310 mOsm. The intrapipette solution contained (in mM): 120 CsF, 10 CsCl, 10 EGTA, and 10 HEPES, osmolarity 300 mOsm[14], with pH adjusted to 7.4 with CsOH. Patch pipettes of 2–4 MΩ were pulled from Sutter BF150-89-10 borosilicate capillaries. Experiments were performed at 23–25 °C. Under control conditions, neurons were voltage clamped at −70 mV. Data are reported without corrections for liquid junction potential, which was measured as −11 mV. To activate NMDARs, 100 µM NMDA and 30 µM glycine were co-applied. Some experiments were performed on neurons loaded with BAPTA. To load BAPTA, cortical neuron cultures were incubated in bathing solution containing 10 µM BAPTA-AM for 2 hours.
# Whole-cell membrane currents activated by NMDA were measured at steady state. The fraction of blocked current was calculated as 1 − Ib/Ic, where Ic is the amplitude of current activated by agonists and Ib is the amplitude of current activated by agonists in the presence of blocker.
# Amplitudes of currents measured in the presence of blocker were normalized to maximal current response in control (Ic). […]
# The obtained values were fitted with the Woodhull equation[36]:6 IC50(Vm)=IC50(0mV)⋅exp(VmzδF/RT) where IC50(0 mV) and δ were set as free parameters. […] For Faraday constant, gas constant and room temperature of 25 °C the RT/F ≈ 25.7 mV.
# The rise time of currents activated by the testing NMDA + Gly application in trapping channel block experiments was fit in ClampFit (pClamp, Axon Instruments) using the double exponential function:7 I=I1·exp(−t/τ1)+I2⋅exp(−t/τ2)−C where I1 and I2 are amplitudes of the exponential and τ1 and τ2 are time constants of the exponential and C equals I1 + I2 + Ib.
# GluN1/GluN2A NMDARs = test system: GluN1/GluN2A NMDARs; parameters: method as in PMID 28877967; conditions: Ca2+-dependent manner; not GluN1/GluN2B receptors; cited from earlier work
smiles,measurement,setting,value
"CN(C)CCC=C1c2ccccc2CCc2ccccc21 [ATL, amitriptyline]",ATL concentrations required for the NMDAR channel block,NMDARs,15 to 60 µM
same,therapeutic window for ATL concentrations in the blood plasma,[1]; blood plasma,0.3 to 1 µM
same,ATL concentration in brain tissue,[1]; brain tissue,≤ 10 µM
same,concentrations showing voltage-dependent open-channel block of NMDARs,NMDA receptors (NMDARs),> 70 µM
same,decrease of IC50 per 1 mM increase of external [Ca2+],NMDA receptors (NMDARs),roughly 5 fold
same,voltage dependence of block of NMDAR currents,"NMDA receptors (NMDARs); 10 μM ATL, 1 mM Ca2+, −70 mV vs −30 mV",voltage dependence was not observed; also recorded: voltage-independent
same,Ca2+ dependence of inhibition of NMDAR currents,"NMDA receptors (NMDARs); 10 μM ATL, −70 mV, 2 mM vs 0.25 mM Ca2+",far more pronounced in 2 mM Ca^2+- than in 0.25 Ca^2+- containing media
same,voltage dependence of block of NMDAR currents,"NMDA receptors (NMDARs); 20 μM ATL, 2 mM Ca2+, −40 mV to +40 mV",did not find any voltage dependence
same,effect on closed NMDARs (ATL applied prior to NMDA),"NMDA receptors (NMDARs); 100 μM ATL, 0.25 mM or 2 mM Ca2+, −70 mV",did not significantly affect currents activated by NMDA
same,voltage dependence of block of NMDAR currents,"NMDA receptors (NMDARs); 100 μM ATL, 1 mM Ca2+, −70 mV vs −30 mV",depended on membrane voltage; also recorded: voltage-dependent
same,type of open-channel block (trapping protocol),"NMDA receptors (NMDARs); 200 µM ATL, 0.25 mM Ca2+, −70 mV",did not cause tail currents; also recorded: partial trapping
same,"τs, slow rise time constant of test current (ATL unblock)","NMDA receptors (NMDARs); 200 µM ATL, washout delay 0.5 s, −70 mV, 0.25 mM Ca2+",11 ± 3.2 s
same,"τs, slow rise time constant of test current (ATL unblock)","NMDA receptors (NMDARs); 200 µM ATL, washout delay 1 s, −70 mV, 0.25 mM Ca2+",13 ± 5.7 s
same,"τs, slow rise time constant of test current (ATL unblock)","NMDA receptors (NMDARs); 200 µM ATL, washout delay 2 s, −70 mV, 0.25 mM Ca2+",13.2 ± 4.0 s
same,"τs, slow rise time constant of test current (ATL unblock)","NMDA receptors (NMDARs); 200 µM ATL, washout delay 4 s, −70 mV, 0.25 mM Ca2+",15 ± 2.9 s
same,voltage shift giving an e-fold change of IC50,NMDA receptors (NMDARs); 0.25 mM Ca2+,50 mV
same,"δ, fraction of the membrane electric field (Woodhull model)","NMDA receptors (NMDARs); 0.25 mM Ca2+, Eq. 6",0.51
same,fraction of ATL inhibition of NMDAR currents (1-Ib/Ic),"NMDA receptors (NMDARs); ATL 10 μM, −30 mV, [Ca2+] 0.25 mM",0.12 ± 0.05
same,fraction of ATL inhibition of NMDAR currents (1-Ib/Ic),"NMDA receptors (NMDARs); ATL 10 μM, −30 mV, [Ca2+] 2 mM",0.30 ± 0.05
same,fraction of ATL inhibition of NMDAR currents (1-Ib/Ic),"NMDA receptors (NMDARs); ATL 10 μM, −70 mV, [Ca2+] 0.25 mM",0.13 ± 0.06
same,fraction of ATL inhibition of NMDAR currents (1-Ib/Ic),"NMDA receptors (NMDARs); ATL 10 μM, −70 mV, [Ca2+] 2 mM",0.42 ± 0.04
same,fraction of ATL inhibition of NMDAR currents (1-Ib/Ic),"NMDA receptors (NMDARs); ATL 100 μM, −30 mV, [Ca2+] 0.25 mM",0.40 ± 0.07
same,fraction of ATL inhibition of NMDAR currents (1-Ib/Ic),"NMDA receptors (NMDARs); ATL 100 μM, −30 mV, [Ca2+] 2 mM",0.35 ± 0.04
same,fraction of ATL inhibition of NMDAR currents (1-Ib/Ic),"NMDA receptors (NMDARs); ATL 100 μM, −70 mV, [Ca2+] 0.25 mM",0.79 ± 0.05
same,fraction of ATL inhibition of NMDAR currents (1-Ib/Ic),"NMDA receptors (NMDARs); ATL 100 μM, −70 mV, [Ca2+] 2 mM",0.79 ± 0.03
same,IC50,"NMDA receptors (NMDARs); [Ca2+] 2–4 mM, read-out: IC50 values at physiological extracellular [Ca2+]",0.7 to 7 µM
same,fraction of ATL inhibition of NMDAR currents (1-Ib/Ic),"NMDA receptors (NMDARs); co-application of agonists and 100 μM ATL, −70 mV, [Ca2+] 0.25 mM",0.85 ± 0.06
same,fraction of ATL inhibition of NMDAR currents (1-Ib/Ic),"NMDA receptors (NMDARs); co-application of agonists and 100 μM ATL, −70 mV, [Ca2+] 2 mM",0.85 ± 0.05
same,IC50,"NMDA receptors (NMDARs); extrapolated to 0 mM Ca2+, −70 mV, read-out: IC50 at [Ca2+] = 0, single exponential approximation",91 µM
same,IC50,"NMDA receptors (NMDARs); extrapolated to 0 mV, 0.25 mM Ca2+, read-out: IC50 (0 mV), fit with Woodhull equation (Eq. 6)",220 µM
same,"[Ca2+] shift giving an e-fold change of IC50 (b value), optimized","NMDA receptors (NMDARs); optimized by fitting all data with IC50(Vm,[Ca2+]) equation",690 µM
same,fraction of ATL inhibition of NMDAR currents (1-Ib/Ic),"NMDA receptors (NMDARs); pre-application of 100 μM ATL, −70 mV, [Ca2+] 0.25 mM",0.12 ± 0.01
same,fraction of ATL inhibition of NMDAR currents (1-Ib/Ic),"NMDA receptors (NMDARs); pre-application of 100 μM ATL, −70 mV, [Ca2+] 2 mM",0.17 ± 0.03
same,IC50,"NMDA receptors (NMDARs); read-out: IC50 for ATL inhibition of NMDAR currents, −30 mV, 0.25 mM Ca2+",129 µM
same,IC50,"NMDA receptors (NMDARs); read-out: IC50 for ATL inhibition of NMDAR currents, −70 mV, 0.25 mM Ca2+ in bathing solution, 100 μM NMDA + 30 μM Gly",63 ± 9.3 µM
same,IC50,"NMDA receptors (NMDARs); read-out: IC50 for ATL inhibition of NMDAR currents, −70 mV, 0.5 mM Ca2+, 100 μM NMDA + 30 μM Gly",37.6 ± 7.7 µM
same,IC50,"NMDA receptors (NMDARs); read-out: IC50 for ATL inhibition of NMDAR currents, −70 mV, 1 mM Ca2+, BAPTA-loaded neurons",106 ± 9.5 µM
same,IC50,"NMDA receptors (NMDARs); read-out: IC50 for ATL inhibition of NMDAR currents, −70 mV, 1 mM Ca2+, control (intact) neurons",21.6 ± 8.7 µM
same,IC50,"NMDA receptors (NMDARs); read-out: IC50 for ATL inhibition of NMDAR currents, −70 mV, 2 mM Ca2+",4.9 ± 1 µM
same,IC50,"NMDA receptors (NMDARs); read-out: IC50 for ATL inhibition of NMDAR currents, −70 mV, 4 mM Ca2+",0.72 µM
same,IC50,"NMDA receptors (NMDARs); read-out: IC50 for ATL inhibition of NMDAR currents, −100 mV, 0.25 mM Ca2+",34.2 ± 9.8 µM
same,[Ca2+] shift giving an e-fold change of IC50 (b value),"NMDA receptors (NMDARs); single exponential fit of IC50 vs [Ca2+], −70 mV",630 µM
same,Hill coefficient h,"NMDA receptors (NMDARs); −70 mV, 0.25 mM Ca2+",1.4 ± 0.1
same,rate constant of binding (kon),"NMDA receptors (NMDARs); −70 mV, 0.25 mM Ca2+, Eq. 3",1600 ± 90 M⁻¹ s⁻¹
same,rate constant of dissociation (koff),"NMDA receptors (NMDARs); −70 mV, 0.25 mM Ca2+, Eq. 4",0.204 ± 0.005 s⁻¹
same,Kd,"NMDA receptors (NMDARs); −70 mV, 0.25 mM Ca2+, Eq. 5, read-out: apparent equilibrium dissociation constant (Kd = koff/kon)",128 ± 7.8 µM
same,Hill coefficient h,"NMDA receptors (NMDARs); −70 mV, 0.5 mM Ca2+",1.5 ± 0.1
same,Hill coefficient h,"NMDA receptors (NMDARs); −70 mV, 1 mM Ca2+",1.6 ± 0.5
same,Hill coefficient h,"NMDA receptors (NMDARs); −70 mV, 2 mM Ca2+",1.2 ± 0.1
same,Hill coefficient h,"NMDA receptors (NMDARs); −70 mV, 4 mM Ca2+",1.5 ± 0.2
"Br.Br.NCCCCCNCC12CC3CC(CC(C3)C1)C2 [IEM-1754, N-(tricyclo[3.3.1.13,7]dec-1-ylmethyl)-1,5-pentanediamine dihydrobromide]",Ca2+ dependence of block of NMDA-activated currents,"NMDA receptors (NMDARs); 10 μM IEM-1754, −70 mV, 2 mM vs 0.25 mM Ca2+",resistant to a 4-fold increase of [Ca^2+]
NC12CC3CC(CC(C3)C1)C2 [amantadine],"δ, fraction of the membrane electric field",NMDARs,0.72
CNC1(c2ccccc2Cl)CCCCC1=O (centres unmarked) [ketamine],sensitivity of NMDAR block to external [Ca2+],NMDARs,no sensitivity to changes in external [Ca^2+]
same,"δ, fraction of the membrane electric field",NMDARs,0.55
CC12CC3CC(C)(C1)CC(N)(C3)C2 [memantine],"δ, fraction of the membrane electric field",NMDARs; by different estimates,0.65–0.91
same,effect on recovery from desensitization,GluN1/GluN2A NMDARs,slows the rate of recovery from desensitization of GluN1/GluN2A NMDARs
